Measurements reported in the kinase profiling compilation of Christmann-Franck et al. (2016).

Columns and labels:
Test in all cases: radiometric filter-binding kinase assay
[1] = tested on: AKT2 (human), P31751 [S474D]
[2] = target: BTK (human) (UniProt Q06187)
[3] = target: CDK2 CCNA2 (human) (UniProt P20248+P24941)
[4] = target: CHEK2 (human) (UniProt O96017)
[5] = target: CSK (human) (UniProt P41240)
[6] = target: CSNK1D (human) (UniProt P48730)
[7] = target: EPHA4 (human) (UniProt P54764)
[8] = target: EPHB1 (human) (UniProt P54762)
[9] = target: EPHB4 (human) (UniProt P54760)
[10] = target: FLT1 (human) (UniProt P17948)
[11] = target: IKBKB (human) (UniProt O14920)
Chain of IKBKB (human) (O14920 whole entry, looked up): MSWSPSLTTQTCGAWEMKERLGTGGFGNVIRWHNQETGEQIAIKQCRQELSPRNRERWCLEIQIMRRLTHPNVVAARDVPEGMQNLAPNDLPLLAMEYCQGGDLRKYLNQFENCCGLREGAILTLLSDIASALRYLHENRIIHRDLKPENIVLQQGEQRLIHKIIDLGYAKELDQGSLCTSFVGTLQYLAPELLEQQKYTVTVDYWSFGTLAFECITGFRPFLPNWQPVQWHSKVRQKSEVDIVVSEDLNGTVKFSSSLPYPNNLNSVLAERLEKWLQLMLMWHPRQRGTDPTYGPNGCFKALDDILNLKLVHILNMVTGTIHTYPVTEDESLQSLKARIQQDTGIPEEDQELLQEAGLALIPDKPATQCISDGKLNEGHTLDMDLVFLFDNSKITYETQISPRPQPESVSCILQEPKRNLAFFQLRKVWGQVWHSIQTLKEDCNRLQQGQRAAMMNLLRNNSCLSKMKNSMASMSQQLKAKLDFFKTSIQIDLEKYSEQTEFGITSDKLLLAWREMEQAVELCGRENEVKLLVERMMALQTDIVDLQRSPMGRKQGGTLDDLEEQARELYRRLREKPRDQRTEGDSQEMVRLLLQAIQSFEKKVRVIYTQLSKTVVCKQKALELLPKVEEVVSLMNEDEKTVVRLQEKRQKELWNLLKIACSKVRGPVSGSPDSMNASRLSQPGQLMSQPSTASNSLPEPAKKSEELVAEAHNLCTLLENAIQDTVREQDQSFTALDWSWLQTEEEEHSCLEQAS

[12] = target: IKBKE (human) (UniProt Q14164)
[13] = target: INSRR (human) (UniProt P14616)
[14] = target: MAP2K1 (human) (UniProt Q02750)
[15] = target: MAPK1 (human) (UniProt P28482)
Chain of MAPK1 (human) (P28482 whole entry, looked up): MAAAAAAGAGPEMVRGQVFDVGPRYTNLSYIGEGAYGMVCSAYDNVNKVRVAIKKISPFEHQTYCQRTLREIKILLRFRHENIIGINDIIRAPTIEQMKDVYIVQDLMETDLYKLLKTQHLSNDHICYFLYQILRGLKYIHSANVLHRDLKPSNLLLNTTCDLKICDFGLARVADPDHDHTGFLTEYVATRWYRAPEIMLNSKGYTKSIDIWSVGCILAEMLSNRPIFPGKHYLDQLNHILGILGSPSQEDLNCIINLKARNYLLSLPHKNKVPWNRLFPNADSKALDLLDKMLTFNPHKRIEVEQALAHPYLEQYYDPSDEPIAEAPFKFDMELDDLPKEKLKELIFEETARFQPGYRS

[16] = target: MAPK14 (human) (UniProt Q16539)
[17] = target: MAPK15 (human) (UniProt Q8TD08)
Chain of MAPK15 (human) (Q8TD08 whole entry, looked up): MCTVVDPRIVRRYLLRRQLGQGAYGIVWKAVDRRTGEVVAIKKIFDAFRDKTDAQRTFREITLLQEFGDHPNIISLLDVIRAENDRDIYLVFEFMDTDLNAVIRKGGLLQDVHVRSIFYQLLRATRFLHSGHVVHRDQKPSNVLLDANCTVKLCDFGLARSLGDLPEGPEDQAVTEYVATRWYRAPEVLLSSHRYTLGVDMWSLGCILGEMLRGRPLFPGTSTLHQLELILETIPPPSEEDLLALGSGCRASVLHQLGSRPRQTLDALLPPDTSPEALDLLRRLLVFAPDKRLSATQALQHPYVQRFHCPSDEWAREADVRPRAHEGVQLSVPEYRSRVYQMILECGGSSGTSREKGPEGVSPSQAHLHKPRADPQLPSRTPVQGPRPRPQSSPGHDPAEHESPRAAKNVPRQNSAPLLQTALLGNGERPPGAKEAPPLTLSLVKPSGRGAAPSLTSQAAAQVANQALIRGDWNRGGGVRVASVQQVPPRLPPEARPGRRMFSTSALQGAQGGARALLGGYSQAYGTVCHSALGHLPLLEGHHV

[18] = target: MAPK3 (human) (UniProt P27361)
[19] = target: MAPKAPK3 (human) (UniProt Q16644)
Chain of MAPKAPK3 (human) (Q16644 whole entry, looked up): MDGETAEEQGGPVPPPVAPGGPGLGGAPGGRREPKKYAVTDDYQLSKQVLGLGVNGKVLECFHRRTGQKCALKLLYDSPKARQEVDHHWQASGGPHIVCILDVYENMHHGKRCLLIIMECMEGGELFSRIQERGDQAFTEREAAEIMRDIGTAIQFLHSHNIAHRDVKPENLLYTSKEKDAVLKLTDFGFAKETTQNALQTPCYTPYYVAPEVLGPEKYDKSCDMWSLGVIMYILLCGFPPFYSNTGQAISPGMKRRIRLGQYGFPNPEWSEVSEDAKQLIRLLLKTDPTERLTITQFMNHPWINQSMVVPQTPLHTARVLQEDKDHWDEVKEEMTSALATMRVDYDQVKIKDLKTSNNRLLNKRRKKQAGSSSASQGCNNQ

[20] = target: MKNK2 (human) (UniProt Q9HBH9)
Chain of MKNK2 (human) (Q9HBH9 whole entry, looked up): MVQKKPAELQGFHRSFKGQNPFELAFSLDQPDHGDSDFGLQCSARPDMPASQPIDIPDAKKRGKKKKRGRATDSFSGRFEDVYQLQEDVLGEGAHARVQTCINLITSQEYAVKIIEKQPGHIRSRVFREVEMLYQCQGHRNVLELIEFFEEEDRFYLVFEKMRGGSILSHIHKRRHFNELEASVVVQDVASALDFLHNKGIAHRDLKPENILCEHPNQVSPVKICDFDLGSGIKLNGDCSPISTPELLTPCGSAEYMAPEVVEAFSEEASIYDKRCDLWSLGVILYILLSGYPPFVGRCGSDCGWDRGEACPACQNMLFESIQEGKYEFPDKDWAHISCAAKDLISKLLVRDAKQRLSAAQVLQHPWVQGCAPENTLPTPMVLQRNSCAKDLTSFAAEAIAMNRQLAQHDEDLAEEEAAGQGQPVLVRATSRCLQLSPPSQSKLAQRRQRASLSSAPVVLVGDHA

[21] = target: NEK2 (human) (UniProt P51955)
Chain of NEK2 (human) (P51955 whole entry, looked up): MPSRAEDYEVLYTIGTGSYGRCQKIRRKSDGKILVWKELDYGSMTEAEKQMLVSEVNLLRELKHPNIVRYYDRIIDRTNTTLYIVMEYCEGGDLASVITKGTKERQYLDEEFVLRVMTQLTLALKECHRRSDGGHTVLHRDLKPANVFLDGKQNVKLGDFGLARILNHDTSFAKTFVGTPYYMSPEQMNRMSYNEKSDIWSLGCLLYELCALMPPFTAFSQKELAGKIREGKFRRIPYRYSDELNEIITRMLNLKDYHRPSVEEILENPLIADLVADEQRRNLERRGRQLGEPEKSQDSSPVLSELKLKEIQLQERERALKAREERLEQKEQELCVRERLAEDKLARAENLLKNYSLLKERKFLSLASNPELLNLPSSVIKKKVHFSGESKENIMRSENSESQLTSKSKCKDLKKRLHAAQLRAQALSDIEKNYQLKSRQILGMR

[22] = target: NEK6 (human) (UniProt Q9HC98)
Chain of NEK6 (human) (Q9HC98 whole entry, looked up): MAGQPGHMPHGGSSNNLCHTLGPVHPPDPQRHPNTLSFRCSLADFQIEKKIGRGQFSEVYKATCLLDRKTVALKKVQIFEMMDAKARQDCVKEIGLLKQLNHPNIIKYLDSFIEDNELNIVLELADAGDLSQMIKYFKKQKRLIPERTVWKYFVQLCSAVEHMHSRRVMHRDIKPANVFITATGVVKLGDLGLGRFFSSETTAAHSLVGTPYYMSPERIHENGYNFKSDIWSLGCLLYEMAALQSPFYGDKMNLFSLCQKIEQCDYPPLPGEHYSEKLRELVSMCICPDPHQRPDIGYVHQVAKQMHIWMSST

[23] = target: PAK7 (human) (UniProt Q9P286)
[24] = target: PIM2 (human) (UniProt Q9P1W9)
Chain of PIM2 (human) (Q9P1W9 whole entry, looked up): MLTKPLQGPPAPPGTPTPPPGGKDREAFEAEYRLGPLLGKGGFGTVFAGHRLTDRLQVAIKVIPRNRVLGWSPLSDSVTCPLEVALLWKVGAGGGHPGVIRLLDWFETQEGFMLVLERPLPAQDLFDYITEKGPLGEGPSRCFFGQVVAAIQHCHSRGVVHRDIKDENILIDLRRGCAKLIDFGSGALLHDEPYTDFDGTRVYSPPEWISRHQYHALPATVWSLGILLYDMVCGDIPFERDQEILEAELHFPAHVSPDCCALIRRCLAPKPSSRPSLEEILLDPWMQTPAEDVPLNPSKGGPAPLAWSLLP

[25] = target: PLK1 (human) (UniProt P53350)
Chain of PLK1 (human) (P53350 whole entry, looked up): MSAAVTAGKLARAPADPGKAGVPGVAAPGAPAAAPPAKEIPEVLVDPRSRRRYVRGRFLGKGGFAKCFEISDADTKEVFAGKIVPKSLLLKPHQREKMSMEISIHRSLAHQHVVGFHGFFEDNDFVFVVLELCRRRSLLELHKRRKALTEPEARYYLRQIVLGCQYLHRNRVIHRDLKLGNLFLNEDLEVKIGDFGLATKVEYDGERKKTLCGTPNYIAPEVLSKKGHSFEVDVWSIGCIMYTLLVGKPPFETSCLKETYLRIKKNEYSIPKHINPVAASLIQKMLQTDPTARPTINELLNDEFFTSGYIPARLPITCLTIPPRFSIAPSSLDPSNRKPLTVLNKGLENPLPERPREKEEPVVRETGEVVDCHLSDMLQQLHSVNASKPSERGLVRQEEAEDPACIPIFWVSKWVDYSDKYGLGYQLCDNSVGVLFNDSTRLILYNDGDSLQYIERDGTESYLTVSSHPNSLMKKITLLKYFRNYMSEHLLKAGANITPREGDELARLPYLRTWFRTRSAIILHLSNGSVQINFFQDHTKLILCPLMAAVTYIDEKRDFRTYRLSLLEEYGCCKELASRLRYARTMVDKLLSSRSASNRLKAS

[26] = tested on: PRKAA1 or PRKAA2 (rat); conditions: accession and sequence are those of the human protein
[27] = target: PRKACA (human) (UniProt P17612)
[28] = target: RIPK2 (human) (UniProt O43353)
[29] = target: RPS6KA1 KD1 KD2 (human) (UniProt Q15418)
Chain of RPS6KA1 KD1 KD2 (human) (Q15418 whole entry, looked up): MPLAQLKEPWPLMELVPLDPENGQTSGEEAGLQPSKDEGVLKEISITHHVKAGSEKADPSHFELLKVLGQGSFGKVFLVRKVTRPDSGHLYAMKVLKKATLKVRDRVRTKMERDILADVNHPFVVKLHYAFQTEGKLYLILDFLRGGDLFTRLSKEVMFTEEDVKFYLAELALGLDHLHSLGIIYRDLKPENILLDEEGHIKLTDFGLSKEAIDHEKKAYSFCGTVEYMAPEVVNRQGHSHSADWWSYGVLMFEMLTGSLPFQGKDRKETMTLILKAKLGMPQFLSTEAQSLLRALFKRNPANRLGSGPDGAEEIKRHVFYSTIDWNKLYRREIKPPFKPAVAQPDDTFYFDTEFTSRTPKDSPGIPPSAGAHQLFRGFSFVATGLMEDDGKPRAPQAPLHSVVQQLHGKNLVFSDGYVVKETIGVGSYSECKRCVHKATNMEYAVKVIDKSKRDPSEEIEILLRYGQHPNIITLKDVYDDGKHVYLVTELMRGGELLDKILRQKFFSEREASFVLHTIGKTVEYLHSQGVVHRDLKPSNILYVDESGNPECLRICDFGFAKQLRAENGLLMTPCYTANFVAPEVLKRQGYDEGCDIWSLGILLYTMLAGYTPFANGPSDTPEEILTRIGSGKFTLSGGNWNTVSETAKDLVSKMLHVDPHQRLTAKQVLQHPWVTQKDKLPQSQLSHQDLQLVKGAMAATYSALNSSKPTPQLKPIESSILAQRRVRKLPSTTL

[30] = target: RPS6KA3 KD1 KD2 (human) (UniProt P51812)
[31] = target: RPS6KA5 KD1 KD2 (human) (UniProt O75582)
[32] = tested on: RPS6KB1 (human), P23443 [T412E]
[33] = target: SRC (human) (UniProt P12931)
[34] = target: SYK (human) (UniProt P43405)
[35] = target: TTK (human) (UniProt P33981)

## CCCC(CCC)C(=O)O
[1]; compound 10.0 µM
  residual activity: 86%
[1]; compound 50.0 µM
  residual activity: 80%
[2]; compound 10.0 µM
  residual activity: 104%
[2]; compound 50.0 µM
  residual activity: 94%
[3]; compound 1.0 µM
  residual activity: 90%
[3]; compound 10.0 µM
  residual activity: 76%
[3]; compound 50.0 µM
  residual activity: 80%
[4]; compound 1.0 µM
  residual activity: 83%
[4]; compound 10.0 µM
  residual activity: 97%
[4]; compound 50.0 µM
  residual activity: 95%
[5]; compound 10.0 µM
  residual activity: 91%
[5]; compound 50.0 µM
  residual activity: 93%
[6]; compound 1.0 µM
  residual activity: 108%
[6]; compound 10.0 µM
  residual activity: 107%
[6]; compound 50.0 µM
  residual activity: 90%
[7]; compound 10.0 µM
  residual activity: 117%
[7]; compound 50.0 µM
  residual activity: 104%
[8]; compound 10.0 µM
  residual activity: 107%
[8]; compound 50.0 µM
  residual activity: 106%
[9]; compound 10.0 µM
  residual activity: 98%
[9]; compound 50.0 µM
  residual activity: 97%
[10]; compound 10.0 µM
  residual activity: 84%
[10]; compound 50.0 µM
  residual activity: 89%
[11]; compound 1.0 µM
  residual activity: 86%
[11]; compound 10.0 µM
  residual activity: 79%
[11]; compound 50.0 µM
  residual activity: 88%
[12]; compound 10.0 µM
  residual activity: 101%
[12]; compound 50.0 µM
  residual activity: 81%
[13]; compound 10.0 µM
  residual activity: 101%
[13]; compound 50.0 µM
  residual activity: 101%
[14]; compound 1.0 µM
  residual activity: 86%
[14]; compound 10.0 µM
  residual activity: 89%
[14]; compound 50.0 µM
  residual activity: 99%
[15]; compound 1.0 µM
  residual activity: 98%
[15]; compound 10.0 µM
  residual activity: 77%
[15]; compound 50.0 µM
  residual activity: 80%
[16]; compound 1.0 µM
  residual activity: 82%
[16]; compound 10.0 µM
  residual activity: 107%
[17]; compound 1.0 µM
  residual activity: 90%
[17]; compound 10.0 µM
  residual activity: 86%
[17]; compound 50.0 µM
  residual activity: 94%
[18]; compound 10.0 µM
  residual activity: 88%
[18]; compound 50.0 µM
  residual activity: 101%
[19]; compound 1.0 µM
  residual activity: 90%
[19]; compound 10.0 µM
  residual activity: 93%
[19]; compound 50.0 µM
  residual activity: 97%
[20]; compound 1.0 µM
  residual activity: 90%
[20]; compound 10.0 µM
  residual activity: 106%
[20]; compound 50.0 µM
  residual activity: 126%
[21]; compound 1.0 µM
  residual activity: 79%
[21]; compound 10.0 µM
  residual activity: 93%
[21]; compound 50.0 µM
  residual activity: 91%
[22]; compound 1.0 µM
  residual activity: 99%
[22]; compound 10.0 µM
  residual activity: 100%
[22]; compound 50.0 µM
  residual activity: 102%
[23]; compound 10.0 µM
  residual activity: 101%
[23]; compound 50.0 µM
  residual activity: 90%
[24]; compound 1.0 µM
  residual activity: 83%
[24]; compound 10.0 µM
  residual activity: 104%
[24]; compound 50.0 µM
  residual activity: 98%
[25]; compound 1.0 µM
  residual activity: 97%
[25]; compound 10.0 µM
  residual activity: 95%
[25]; compound 50.0 µM
  residual activity: 93%
[26]; compound 1.0 µM
  residual activity: 98%
[26]; compound 10.0 µM
  residual activity: 94%
[26]; compound 50.0 µM
  residual activity: 91%
[27]; compound 1.0 µM
  residual activity: 82%
[27]; compound 10.0 µM
  residual activity: 91%
[27]; compound 50.0 µM
  residual activity: 93%
[28]; compound 10.0 µM
  residual activity: 104%
[28]; compound 50.0 µM
  residual activity: 90%
[29]; compound 1.0 µM
  residual activity: 99%
[29]; compound 10.0 µM
  residual activity: 100%
[29]; compound 50.0 µM
  residual activity: 96%
[30]; compound 1.0 µM
  residual activity: 94%
[30]; compound 10.0 µM
  residual activity: 94%
[30]; compound 50.0 µM
  residual activity: 93%
[31]; compound 1.0 µM
  residual activity: 94%
[31]; compound 10.0 µM
  residual activity: 86%
[31]; compound 50.0 µM
  residual activity: 91%
[32]; compound 1.0 µM
  residual activity: 81%
[32]; compound 10.0 µM
  residual activity: 84%
[32]; compound 50.0 µM
  residual activity: 91%
[33]; compound 1.0 µM
  residual activity: 100%
[33]; compound 10.0 µM
  residual activity: 87%
[33]; compound 50.0 µM
  residual activity: 94%
[34]; compound 10.0 µM
  residual activity: 100%
[34]; compound 50.0 µM
  residual activity: 98%
[35]; compound 10.0 µM
  residual activity: 101%
[35]; compound 50.0 µM
  residual activity: 82%
